{"source": "patent US20220395572A1", "about": "“C[…] THERAPY FOR TREATMENT OF DISC DEGENERATIVE DISEASE” (FIGENE, LLC, priority 2019, published 2022)", "key": {"Dermal fibroblasts": {"test_system": "Dermal fibroblasts", "assay": "Growth factor production by dermal fibroblasts cultured 48 hours with CBD", "format": "cell-based", "conditions": "various CBD concentrations, OPTI-MEM with 10% fetal calf serum", "excerpt": "(§1) In the groupings of three bars, the middle bar at each concentration represents 100,000 fibroblasts co-cultured with CBD at the indicated concentration. The right bar at each concentration represents 200,000 fibroblasts co-cultured with CBD at the indicated concentration. The left bar at each concentration represents 0 fibroblasts co-cultured with CBD at the indicated concentration;\nas §1, with “concentration.” for “concentration;”\nDermal fibroblasts were obtained from Allcells, Inc. and cultured for 48 hours in the indicated concentrations of CBD. […] Cultures were performed in OPTI-MEM media with 10% fetal calf serum."}, "[1]": {"test_system": "in vitro formed nucleus pulposus tissues", "conditions": "TNF-alpha 1-5 ng/mL, within 48 hours; cited from earlier work"}, "[2]": {"test_system": "CGRP expression in dorsal root ganglion (DRG) neurons innervating intervertebral discs", "conditions": "cited from earlier work"}}}
{"molecule": "C=C(C)C1CCC(C)=CC1c1c(O)cc(CCCCC)cc1O", "note": "(centres unmarked) [CBD, 2-[3-methyl-6-(1-methylethenyl)-2-cyclohexen-1-yl]-5-pentyl-1,3-benzenediol]", "values": [{"measurement": "IGF-1 production from fibroblasts", "setting": "Dermal fibroblasts; FIG. 1", "value": "augmentation of IGF-1 was observed"}, {"measurement": "EGF-1 production from fibroblasts", "setting": "Dermal fibroblasts; FIG. 2", "value": "augmentation of EGF-1 was observed"}]}
{"molecule": "TNF-alpha", "values": [{"measurement": "proteoglycan content of NP tissue relative to original", "setting": "[1]", "value": 25, "unit": "%"}]}
{"molecule": "etanercept", "values": [{"measurement": "CGRP expression in DRG neurons innervating injured discs", "setting": "[2]; direct intradiscal application immediately after disc puncture, rats", "value": "suppressed CGRP expression"}, {"measurement": "proportion of CGRP-immunoreactive neurons among FluoroGold-labeled neurons", "setting": "[2]; rat L4/5 disc puncture, direct intradiscal application, sham 21%±4%, puncture+saline 32%±7%", "value": "23%±4%"}]}
